Test results from US4886806A, “Flavone-3-carboxylic acids compounds and pharmaceutical compositions containing them” (Kali-Chemie Pharma GmbH, priority 1987, dated 1989).

Legend:
[1] = test system: oxygen radical-forming activity of activated peritoneal exudate cells (PEC) of mice; test: Peak chemiluminescence (CL) test: inhibition of oxygen radical liberation from activated peritoneal exudate cells; format: cell-based; details: Mus musculus, 10^-4 Mol substance/l, added at peak of cell activity, read-out: Inhibition in vitro of the oxygen radical liberation, Chemiluminescence Test % inhibition, Pk. CL
Experimental: 1. To determine the inhibiting effect on the oxygen radical-forming activity of inflamed cells, the in vitro inhibition of the release of oxygen radicals from activated peritoneal exudate cells (=PEC) of mice was determined in the chemiluminescence (CL) test according to the method of Mueller-Peddinghaus (Int. J. Immunopharmac. 6, 455-466 (1984)). […] The intensity of the chemiluminescence is a measurement of the oxygen radical content in the suspension and thus the degree of activity of the inflamed cells. In this, three functionally different parameters are detected, the spontaneous CL, the induced CL and the peak CL. The spontaneous CL and the induced CL on the one hand and the peak CL on the other hand differ from each other because in the first two parameters the test substances are in contact with the cells for a 30 minute preincubation period before the inflammation irritant is added, whereas with the peak CL the cells are first stimulated, and the test substance is added at the peak of their activity. The measurement of the spontaneous CL thus detects the influence of the test substance on the relative rest activity of inflamed cells, the induced CL represents the effect of the test substances on the activatability of the cells and the inhibition of the peak CL indicates the effect of the test substances on the maximum activity of the inflamed cells. 1.1 Production of PEC suspension used in the test. In order to induce the PEC formation, female mice of 20-25 g body weight were each injected i.p. with 2 ml of a 3% solution of thioglycollate in sterile isotonic sodium chloride solution. Twenty four hours after the thioglycollate injection the cells, which predominantly consisted of polymorphonuclear leucocytes, were recovered by washing out of the abdominal cavity and washed twice. As cell culture medium there was added a commercially available solution under the designation RPMI 1640 (pH 7.2) (produced by Flow Laboratories, […], Germany), which contains 10% fetal calf serum (FCS, produced by Seromed GmbH, Munich, Germany) 18 μmol/l sodium bicarbonate and 2 μmol/l L-glutamine. The cell pellets of four animals each time were resuspended in cell culture medium, collected together and the suspension was made up to 2×10^6 cells per ml with cell culture medium. The cell suspensions were kept under ice cooling until their use the same day. 1.2 Production of the complement opsonized zymosan (=ZyC3 b) suspension used for activation. 200 mg zymosan (glycoprotein mixture isolated from the cell walls of brewer's yeast, Sacchomyces […], produced by Sigma Chemical Co., Munich, Germany) were suspended in 10 ml phosphate buffer solution according to Dulbecco (produced by Flow Laboratories, […], Germany), well stirred and heated for thirty minutes in a water bath to 100° C. After cooling, it was centrifuged for five minutes at 4° C. and at 600 ×g and the supernatant was discarded. The sediment was resuspended in 50 ml human serum and incubated for thirty minutes at 37° C. in a shaking water bath. Then it was centrifuged for five minutes at 600 ×g and 420 C., the supernatant decanted and the sediment washed with phosphate buffer solution. The working suspension of 8×10^-3 g ZyC3 b/ml was produced from the sediment by dilution with phosphate buffer solution (Mueller-Peddinghaus et al., Zbl. Vet. Med. B. 30, 559-575). 1.3 Chemiluminescence (CL) measurement (Peak-CL). The PEC suspension was divided into samples of 100 μl each, placed in test tubes, and these were incubated for ten minutes at a temperature of 3720 C. in a measurement device (Chemiluminescence analyzer, Laboratorium Prof. Berthold, Wildbad, Germany). Then in order to amplify the chemiluminescence, 100 μl lucigenin solution was added (final concentration 1.54×10^-4 mol/l) and incubated for 16 more minutes. The cells were then activated by the addition of 100 μl of the ZyC3 b suspension produced as described in section 1.2 plus 100 μl phosphate buffer solution. […]

Lipoxygenase = test: LTB4 synthesis and inhibition test (lipoxygenase inhibition in vitro) in polymorphonuclear leucocytes; format: cell-based; details: Homo sapiens, PMNL, 10^-4 Mol/l, Ca-ionophore A 23187, arachidonic acid, read-out: Lipoxygenase inhib. in vitro, % inhibition of the LTB4 synthesis at 10^-4 Mol/l
Experimental: 2. In order to investigate the lipoxygenase-inhibiting properties, the inhibiting effect of the substances on the biosynthesis of leucotriene B4 (=LTB4) from arachidonic acid by activated inflamed cells was determined in vitro. Leucotriene B4, a dihydroxy fatty acid which plays an important role not only in the inflammation but also in allergic reactions was oxidatively formed, starting from arachidonic acid, by oxidation through the action of the enzyme lipoxygenase.
LTB4 Synthesis and Inhibition Test.
The combined extracts were evaporated under vacuum to dryness and the residue was taken up in 0.5 ml 30% aqueous methanol and was analyzed with the aid of high pressure liquid chromatography with phase reversal (=reversed phase-HPLC). The stationary phase (=separating medium) consisted of silica gel containing octadecyl groups chemically bound thereto (=RSIL C18 HP; produced by Autech, Darfield, Ill.). The solvent mixture is methanol:water:acetic acid (67:33:0.1; v/v/v), which had been adjusted to a pH value of 6.2 with NH3 /H2 O. The flow velocity was 1 ml/min. […] The LTB4 signals were compared with those of the control (cell incubation with solvent) and reported as percent inhibition of LTB4 synthesis compared with the controls.

[2] = test system: oxygen radical-forming activity of peritoneal exudate cells (PEC) of mice; test: Spontaneous CL and induced CL chemiluminescence test: inhibition of oxygen radical liberation from peritoneal exudate cells (30 min preincubation); format: cell-based; design: concentration or dose not given beside the values; details: for Inhibition in vitro of the oxygen radical liberation, Chemiluminescence Test % inhibition, Ind. CL: induced CL, after ZyC3b activation; for Inhibition in vitro of the oxygen radical liberation, Chemiluminescence Test % inhibition, Spnt. CL: spontaneous CL, before ZyC3b
Experimental: 1. To determine the inhibiting effect on the oxygen radical-forming activity of inflamed cells, the in vitro inhibition of the release of oxygen radicals from activated peritoneal exudate cells (=PEC) of mice was determined in the chemiluminescence (CL) test according to the method of Mueller-Peddinghaus (Int. J. Immunopharmac. 6, 455-466 (1984)). […] The intensity of the chemiluminescence is a measurement of the oxygen radical content in the suspension and thus the degree of activity of the inflamed cells. In this, three functionally different parameters are detected, the spontaneous CL, the induced CL and the peak CL. The spontaneous CL and the induced CL on the one hand and the peak CL on the other hand differ from each other because in the first two parameters the test substances are in contact with the cells for a 30 minute preincubation period before the inflammation irritant is added, whereas with the peak CL the cells are first stimulated, and the test substance is added at the peak of their activity. The measurement of the spontaneous CL thus detects the influence of the test substance on the relative rest activity of inflamed cells, the induced CL represents the effect of the test substances on the activatability of the cells and the inhibition of the peak CL indicates the effect of the test substances on the maximum activity of the inflamed cells. 1.1 Production of PEC suspension used in the test. In order to induce the PEC formation, female mice of 20-25 g body weight were each injected i.p. with 2 ml of a 3% solution of thioglycollate in sterile isotonic sodium chloride solution. Twenty four hours after the thioglycollate injection the cells, which predominantly consisted of polymorphonuclear leucocytes, were recovered by washing out of the abdominal cavity and washed twice. As cell culture medium there was added a commercially available solution under the designation RPMI 1640 (pH 7.2) (produced by Flow Laboratories, […], Germany), which contains 10% fetal calf serum (FCS, produced by Seromed GmbH, Munich, Germany) 18 μmol/l sodium bicarbonate and 2 μmol/l L-glutamine. The cell pellets of four animals each time were resuspended in cell culture medium, collected together and the suspension was made up to 2×10^6 cells per ml with cell culture medium. The cell suspensions were kept under ice cooling until their use the same day. 1.2 Production of the complement opsonized zymosan (=ZyC3 b) suspension used for activation. 200 mg zymosan (glycoprotein mixture isolated from the cell walls of brewer's yeast, Sacchomyces […], produced by Sigma Chemical Co., Munich, Germany) were suspended in 10 ml phosphate buffer solution according to Dulbecco (produced by Flow Laboratories, […], Germany), well stirred and heated for thirty minutes in a water bath to 100° C. After cooling, it was centrifuged for five minutes at 4° C. and at 600 ×g and the supernatant was discarded. The sediment was resuspended in 50 ml human serum and incubated for thirty minutes at 37° C. in a shaking water bath. Then it was centrifuged for five minutes at 600 ×g and 420 C., the supernatant decanted and the sediment washed with phosphate buffer solution. The working suspension of 8×10^-3 g ZyC3 b/ml was produced from the sediment by dilution with phosphate buffer solution (Mueller-Peddinghaus et al., Zbl. Vet. Med. B. 30, 559-575). 1.3 Chemiluminescence (CL) measurement (Peak-CL). […] At the end of this preincubation phase, 100 μl lucigenin were added, and in the course of the subsequent sixteen minute incubation phase the spontaneous CL parameter was determined with two measuring points. Then 100 μl ZyC3 b+100 μl phosphate buffer were added, and during the course of the subsequent twenty-four minute cell activation the induced CL parameter was measured with three measuring points. All measurements were determined twice. The parameters spontaneous CL and induced CL were determined on the same day with two separate cell pools.

[3] = test system: carrageenin foot edema in male Wistar rats; test: Inhibition of carrageenin foot edema in rats (Winter et al.); format: in vivo; details: Rattus norvegicus, 2 h after irritant
Experimental: A similar volume of isotonic sodium chloride solution was injected in the left hind foot. The volume of the each rat's foot was measured plethysmometrically both before and two hours after administration of the irritant, and the swelling of the foot volume after the carrageenin application was compared to the foot which was treated only with sodium chloride solution The inhibition of edema formation by the test substances in the treated animals was compared in percentage terms with the animals of the untreated control group.

Row | Structure (SMILES) | inhibition at 100 µM (stock) [1] | inhibition at 100 µM (Lipoxygenase) | Inhibition in vitro of the oxygen radical liberation, Chemiluminescence Test % inhibition, Ind. CL [2] | Inhibition in vitro of the oxygen radical liberation, Chemiluminescence Test % inhibition, Spnt. CL [2] | inhibition in vivo at 215 µmol/kg ([3]; ip, 215 μmol/kg i.p.) | inhibition in vivo at 215 µmol/kg ([3]; po, 215 μmol/kg p.o.)
1 | O=C(NCCCC[N+]1([O-])CC[N+]([O-])(c2cccc[n+]2[O-])CC1)c1c(-c2ccccc2)oc2ccccc2c1=O (stereo not shown) [Example 26] | 10% | 43% | 3% | 13% |  | 
2 | O=C(c1c(-c2ccc(O)c(O)c2)oc2ccccc2c1=O)N1CCN(c2ccccn2)CC1 [Example 29] | 75% | 97% | 74% | 65% |  | 
3 | O=C(c1c(-c2ccccc2Cl)oc2ccccc2c1=O)N1CCN(c2ccccn2)CC1 [Example 35] |  | 100% |  |  |  | 
4 | O=C(NCCCCN1CCN(c2ncccn2)CC1)c1c(-c2ccccc2)oc2ccccc2c1=O [Example 25] |  |  |  |  | 58% | 25%
5 | CC(=O)Oc1cc(-c2oc3ccccc3c(=O)c2C(=O)N2CCN(Cc3ccccc3)CC2)cc(OC(C)=O)c1OC(C)=O [Example 42b] | 99% | 100% | 100% | 99% |  | 
6 | COc1cc(-c2oc3ccccc3c(=O)c2C(=O)NCCCC[N+]2([O-])CC[N+]([O-])(Cc3ccccc3)CC2)cc(OC)c1OC (stereo not shown) [Example 52] |  |  |  |  | 53% | 
